ChEMBL document CHEMBL1201862, “PubChem BioAssay data set” (2004)
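Following 48 hours of exposure in 96-well plates, responses at five concentrations were used to interpolate endpoints linearly. The concentration for 50% growth inhibition is given as GI50.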 Active and inactive are the calls of the source. Cut-off read from the data, not from the text of the source: active = GI50 up to about 1.1 µM and inactive = higher.

How the values were obtained:
Assay in all cases: inhibition of tumour cell growth, NCI panel, 48 h
MOLT-4 = system: MOLT-4
SK-MEL-5 = system: SK-MEL-5
SF-539 = system: SF-539
NCI-H522 = system: NCI-H522
SW-620 = system: SW-620
CCRF-CEM = system: CCRF-CEM
LXFL 529 = system: LXFL 529
OVCAR-5 = system: OVCAR-5
SN12C = system: SN12C
TK-10 = system: TK-10
HCT-116 = system: HCT-116
SF-268 = system: SF-268
786-0 = system: 786-0
OVCAR-4 = system: OVCAR-4
UO-31 = system: UO-31
NCI-H460 = system: NCI-H460
HCT-15 = system: HCT-15

Row | SMILES | GI50 (MOLT-4) | GI50 (SK-MEL-5) | GI50 (SF-539) | GI50 (NCI-H522) | GI50 (SW-620) | GI50 (CCRF-CEM) | GI50 (LXFL 529) | GI50 (OVCAR-5) | GI50 (SN12C) | GI50 (TK-10) | GI50 (HCT-116) | GI50 (SF-268) | GI50 (786-0) | GI50 (OVCAR-4) | GI50 (UO-31) | GI50 (NCI-H460) | GI50 (HCT-15)
1 | Cc1ccccc1NC(=O)CC(=O)n1nc(-c2ccccc2)c(/N=N/c2ccc([N+](=O)[O-])cc2)c1-c1ccccc1 | 16.1 µM (inactive) | 13 µM (inactive) | 19.9 µM (inactive) | 18.9 µM (inactive) | 30.5 µM (inactive) | 28.4 µM (inactive) | 24.9 µM (inactive) | 32 µM (inactive) | 22.1 µM (inactive) | 37.1 µM (inactive) | 14.4 µM (inactive) | 21.2 µM (inactive) | 22.1 µM (inactive) | 23.6 µM (inactive) | 7.03 µM (inactive) | 31.5 µM (inactive) | 
2 | [N-]=[N+]=NC(c1cn(C2CC(O)C(CO)O2)c(=O)[nH]c1=O)C(Cl)Br (centres undefined) | > 100 µM (inactive) | > 100 µM (inactive) | > 100 µM (inactive) | > 100 µM (inactive) | > 100 µM (inactive) | 50.8 µM (inactive) | > 100 µM (inactive) |  | > 100 µM (inactive) | > 100 µM (inactive) | > 100 µM (inactive) |  | > 100 µM (inactive) |  | > 100 µM (inactive) | > 100 µM (inactive) | > 100 µM
3 | COP1(=O)CC2C(Cl)(Cl)C2(C)C1 (centres undefined) | > 100 µM (inactive) | > 100 µM (inactive) | > 100 µM (inactive) | > 100 µM (inactive) | > 100 µM (inactive) | > 100 µM (inactive) | > 100 µM (inactive) |  | > 100 µM (inactive) | > 100 µM (inactive) | > 100 µM (inactive) | > 100 µM (inactive) | > 100 µM (inactive) | > 100 µM (inactive) |  | > 100 µM (inactive) | 
4 | NC(Cc1ccccc1)C(=O)OCN1C(=O)C2C3C=CC(C2C1=O)C1C2C(=O)N(COC(=O)C(N)Cc4ccccc4)C(=O)C2C31 (centres undefined) |  | 18.2 µM (inactive) | 22.5 µM (inactive) |  | 23.3 µM (inactive) | 22.8 µM (inactive) | 20.5 µM (inactive) | 35.5 µM (inactive) | 20.8 µM (inactive) | 39.2 µM (inactive) | 23 µM (inactive) | 17.4 µM (inactive) | 20.7 µM (inactive) | 23.3 µM (inactive) |  | 16.3 µM (inactive) | 17.6 µM
5 | CCCCCCCCCCCCCCCCCC(=O)NCCCNCCCNC(=O)CCCCCCCCCCCCCCCCC | > 100 µM (inactive) | > 100 µM (inactive) |  |  | > 100 µM (inactive) | > 100 µM (inactive) | > 100 µM (inactive) | > 100 µM (inactive) | > 100 µM (inactive) | > 100 µM (inactive) | > 100 µM (inactive) | > 100 µM (inactive) | > 100 µM (inactive) | > 100 µM (inactive) | > 100 µM (inactive) | > 100 µM (inactive) | > 100 µM
6 | Nc1ccc2c(c1)Oc1c(F)c(F)cc3c(=O)c(C(=O)O)cn-2c13 | 24 µM (inactive) | 17.1 µM (inactive) | 39.2 µM (inactive) | 29.9 µM (inactive) | 41.3 µM (inactive) | 33 µM (inactive) | 41.5 µM (inactive) | > 100 µM (inactive) | 39.1 µM (inactive) | 38.1 µM (inactive) | 24.2 µM (inactive) | > 10 µM (inactive) | 28.1 µM (inactive) | 40.1 µM (inactive) | 27.3 µM (inactive) |  | 46.2 µM
7 | O/N=C1/CCCC/C1=C\c1ccc(Cl)c(Cl)c1 | 15.2 µM (inactive) | 16.1 µM (inactive) | 19 µM (inactive) |  | 46.6 µM (inactive) | 18.9 µM (inactive) | 19.7 µM (inactive) |  | 18.4 µM (inactive) | 34.8 µM (inactive) | 17.2 µM (inactive) | 25.1 µM (inactive) | 29.9 µM (inactive) | 21.5 µM (inactive) | 20.8 µM (inactive) | 23.9 µM (inactive) | 28.4 µM
8 | COC1=CC(=C(C#N)/C(=N\c2ccccc2)SC)C=C(OC)C1=O | 20.8 µM (inactive) | 20.7 µM (inactive) | > 100 µM (inactive) | 37.6 µM (inactive) | 38.7 µM (inactive) | 16 µM (inactive) | 17.5 µM (inactive) |  | > 100 µM (inactive) | > 100 µM (inactive) | 29.9 µM (inactive) |  | 31.6 µM (inactive) |  | 36.5 µM (inactive) | 70.6 µM (inactive) | 80.7 µM
9 | C=C1c2[nH]c3ccccc3c2CC(C(=O)O)N1C(O)c1ccc(S(=O)(=O)O)cc1 (centres undefined) | > 100 µM (inactive) | > 100 µM (inactive) | > 100 µM (inactive) | > 100 µM (inactive) | > 100 µM (inactive) | > 100 µM (inactive) | > 100 µM (inactive) | > 100 µM (inactive) | > 100 µM (inactive) | > 100 µM (inactive) | > 100 µM (inactive) | > 100 µM (inactive) | > 100 µM (inactive) | > 100 µM (inactive) | > 100 µM (inactive) | > 100 µM (inactive) | 
